# Data as given in patent US9328083B2, “2-aminated methylene or 2-esterified methylene tanshinone derivatives, and preparation method and application thereof” (HANGZHOU BENSHENG PHARMACEUTICAL CO., LTD., priority 2011, dated 2016).
# How the values were obtained:
# [1] = system: H9 (acute lymphoblastic leukemia, ALL); assay: MTT growth inhibition of leukemia cells, 72 h; type: cell-based, human; details: Homo sapiens, H9, 72 h; for IC50: read-out: IC50; for IC90: read-out: IC90
# Procedure, shortened: (§1)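 MTT assay of viable cells following 72 h compound treatment at 37 °C. Cultures contained 6000 cells per well in RPMI-1640 plus 10% fetal bovine serum.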
# [2] = system: Jurkat (acute lymphoblastic leukemia, ALL); assay: MTT growth inhibition of leukemia cells, 72 h; type: cell-based, human; details: Homo sapiens, 72 h; for IC50: read-out: IC50; for IC90: read-out: IC90
# Procedure, shortened: as §1
# [3] = system: K562/adr (drug-resistant, chronic myeloid leukemia, CML); assay: MTT growth inhibition of leukemia cells, 72 h; type: cell-based, human; details: Homo sapiens, K562/Adr; for IC50: read-out: IC50; for IC90: read-out: IC90
# Procedure, shortened: as §1
# [4] = system: Kasumi-1 (acute myeloid leukemia M2 type, AML-M2); assay: MTT growth inhibition of leukemia cells, 72 h; type: cell-based, human; details: Homo sapiens, Kasumi-1, 72 h; for IC50: read-out: IC50; for IC90: read-out: IC90
# Procedure, shortened: as §1
# [5] = system: NB4 (acute promyelocytic leukemia, AML); assay: MTT growth inhibition of leukemia cells, 72 h; type: cell-based, human; details: Homo sapiens, NB4, 72 h; for IC50: read-out: IC50; for IC90: read-out: IC90
# Procedure, shortened: as §1
# [6] = system: RPMI8226 (multiple myeloma); assay: MTT growth inhibition of multiple myeloma cells, 72 h; type: cell-based, human; details: Homo sapiens, RPMI 8226, 72 h; for IC50: read-out: IC50; for IC90: read-out: IC90
# Procedure, shortened: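 RPMI8226 myeloma cells, 6000 per well in 1640 medium with 10% FBS, exposed to compounds at a range of concentrations (diluted from 10 mg/mL DMSO stock) for 72 h at 37° C, 5% CO2. Viable cells then determined by MTT.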
# A549 (human lung cancer) = assay: MTT growth inhibition of human solid tumor cells, 72 h; type: cell-based; details: Homo sapiens, A549, 72 h; for IC50: read-out: IC50; for IC90: read-out: IC90
# Procedure, shortened: (§2)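 4000 cells per well in DMEM high glucose with 10% FBS were grown for 24 h at 37°C, 5% CO2. Compounds were diluted from a 10 mg/mL DMSO stock, and cells were exposed for 72 h; viable cells measured by MTT.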
# [7] = system: Becap37 (human breast cancer cell); assay: as above; type: cell-based; details: Homo sapiens, Becap-37, 72 h; for IC50: read-out: IC50; for IC90: read-out: IC90
# Procedure, shortened: as §2
# [8] = system: CNE (nasopharyngeal carcinoma cell); assay: as above; type: cell-based; details: Homo sapiens; for IC50: read-out: IC50; for IC90: read-out: IC90
# Procedure, shortened: as §2
# [9] = system: CaES-17 (esophageal cancer cell); assay: as above; type: cell-based; details: Homo sapiens, CaEs17, CaEs-17, 72 h; for IC50: read-out: IC50; for IC90: read-out: IC90
# Procedure, shortened: as §2
# [10] = system: Hela (human cervical cancer cell); assay: as above; type: cell-based; details: Homo sapiens, HeLa, 72 h; for IC50: read-out: IC50; for IC90: read-out: IC90
# Procedure, shortened: as §2
# [11] = system: Hep G2 (human liver cancer cell); assay: as above; type: cell-based; details: Homo sapiens, HepG2, Hep G2, 72 h; for IC50: read-out: IC50; for IC90: read-out: IC90
# Procedure, shortened: as §2
# [12] = system: Hep-2 (laryngeal carcinoma); assay: as above; type: cell-based; details: Homo sapiens, HEp-2, 72 h; for IC50: read-out: IC50; for IC90: read-out: IC90
# Procedure, shortened: as §2
# MG63 (osteosarcoma) = assay: as above; type: cell-based; details: for IC50 / IC90: Homo sapiens, MG-63, 72 h; for IC50: read-out: IC50; for IC90: read-out: IC90
# Procedure, shortened: as §2
# [13] = system: MGC 803 (human gastric cancer cell); assay: as above; type: cell-based; details: Homo sapiens, MGC-803, 72 h; for IC50: read-out: IC50; for IC90: read-out: IC90
# Procedure, shortened: as §2
# [14] = system: PANC-1 (pancreatic cancer); assay: as above; type: cell-based; details: Homo sapiens, PANC-1, 72 h; for IC50: read-out: IC50; for IC90: read-out: IC90
# Procedure, shortened: as §2
# PC-3 (prostate cancer) = assay: as above; type: cell-based; details: Homo sapiens, PC-3, 72 h; for IC50: read-out: IC50; for IC90: read-out: IC90
# Procedure, shortened: as §2
# [15] = system: RKO (human colon adenocarcinoma cell); assay: as above; type: cell-based; details: Homo sapiens; for IC50: read-out: IC50; for IC90: read-out: IC90
# Procedure, shortened: as §2
# [16] = system: SK-OV-3 (ovarian cancer cell); assay: as above; type: cell-based; details: Homo sapiens, SK-OV-3, 72 h; for IC50: read-out: IC50; for IC90: read-out: IC90
# Procedure, shortened: as §2
# [17] = system: U87 MG (malignant glioma cell); assay: as above; type: cell-based; details: Homo sapiens, U-87 MG, U87-MG, 72 h; for IC50: read-out: IC50; for IC90: read-out: IC90
# Procedure, shortened: as §2
structure (smiles),measurement,setting,value
CCC(=O)OCc1oc2c(c1C)C(=O)C(=O)c1c-2ccc2c(C)cccc12 [BS-TA-A03],IC50,[1],6.4 µg/mL
same,IC90,[1],> 16 µg/mL
same,IC50,[2],5.54 µg/mL
same,IC90,[2],17.1 µg/mL
same,IC50,[3],2.3 µg/mL
same,IC90,[3],6.61 µg/mL
same,IC50,[4],2.35 µg/mL
same,IC90,[4],7.79 µg/mL
same,IC50,[5],1.93 µg/mL
same,IC90,[5],9.65 µg/mL
same,IC50,[6],8.4 µg/mL
same,IC90,[6],> 16 µg/mL
same,IC50,A549 (human lung cancer),10.6 µg/mL
same,IC90,A549 (human lung cancer),24.2 µg/mL
same,IC50,[7],14.2 µg/mL
same,IC90,[7],> 16 µg/mL
same,IC50,[8],8.5 µg/mL
same,IC90,[8],> 16 µg/mL
same,IC50,[9],15.5 µg/mL
same,IC90,[9],> 16 µg/mL
same,IC50,[10],5 µg/mL
same,IC90,[10],> 16 µg/mL
same,IC50,[11],10.6 µg/mL
same,IC90,[11],> 16 µg/mL
same,IC50,[12],6.82 µg/mL
same,IC90,[12],> 16 µg/mL
same,IC50,MG63 (osteosarcoma),4.86 µg/mL
same,IC90,MG63 (osteosarcoma),> 16 µg/mL
same,IC50,[13],9.22 µg/mL
same,IC90,[13],23.2 µg/mL
same,IC50,[14],3.08 µg/mL
same,IC90,[14],13.3 µg/mL
same,IC50,PC-3 (prostate cancer),14.4 µg/mL
same,IC90,PC-3 (prostate cancer),> 16 µg/mL
same,IC50,[15],2.77 µg/mL
same,IC90,[15],> 16 µg/mL
same,IC50,[16],> 16 µg/mL
same,IC90,[16],> 16 µg/mL
same,IC50,[17],> 16 µg/mL
same,IC90,[17],> 16 µg/mL
Cc1c(CN(C)Cc2ccccc2)oc2c1C(=O)C(=O)c1c-2ccc2c(C)cccc12 [BS-TA-B01],IC50,[1],0.7 µg/mL
same,IC90,[1],2.3 µg/mL
same,IC50,[2],0.96 µg/mL
same,IC90,[2],5.3 µg/mL
same,IC50,[3],1.13 µg/mL
same,IC90,[3],2.95 µg/mL
same,IC50,[4],0.66 µg/mL
same,IC90,[4],1.91 µg/mL
same,IC50,[5],0.26 µg/mL
same,IC90,[5],0.96 µg/mL
same,IC50,[6],0.52 µg/mL
same,IC90,[6],2.9 µg/mL
same,IC50,A549 (human lung cancer),1.7 µg/mL
same,IC90,A549 (human lung cancer),17 µg/mL
same,IC50,[7],0.43 µg/mL
same,IC90,[7],3.73 µg/mL
same,IC50,[8],0.817 µg/mL
same,IC90,[8],39 µg/mL
same,IC50,[9],0.97 µg/mL
same,IC90,[9],3.81 µg/mL
same,IC50,[10],1.31 µg/mL
same,IC90,[10],16.2 µg/mL
same,IC50,[11],1.25 µg/mL
same,IC90,[11],9.41 µg/mL
same,IC50,[12],0.88 µg/mL
same,IC90,[12],29.6 µg/mL
same,IC50,MG63 (osteosarcoma),0.38 µg/mL
same,IC90,MG63 (osteosarcoma),14.9 µg/mL
same,improvement of anti-MG63 activity as compared with tanshinone I,"MG63 (osteosarcoma); MG63, vs tanshinone I",~3 fold
same,IC50,[13],0.79 µg/mL
same,IC90,[13],7.25 µg/mL
same,IC50,[14],0.81 µg/mL
same,IC90,[14],16 µg/mL
same,IC50,PC-3 (prostate cancer),1.83 µg/mL
same,IC90,PC-3 (prostate cancer),16 µg/mL
same,IC50,[15],0.17 µg/mL
same,IC90,[15],16 µg/mL
same,IC50,[16],5.41 µg/mL
same,IC90,[16],22.8 µg/mL
same,IC50,[17],0.74 µg/mL
same,IC90,[17],8 µg/mL
